Assays:
Plasmodium falciparum [1] = assay: Antiplasmodial activity against CQ-sensitive asexual ring-stage Plasmodium falciparum 3D7 infected in erythrocytes assessed as parasitic growth inhibition measured after 72 hrs by ELISA; format: functional, organism-based; conditions: 3D7, Erythrocyte
Plasmodium falciparum [2] = assay: Antiplasmodial activity against multidrug-resistant asexual ring-stage Plasmodium falciparum Dd2 infected in erythrocytes assessed as parasitic growth inhibition measured after 72 hrs by ELISA; format: functional, organism-based; conditions: Dd2, Erythrocyte
[3] = Cytotoxicity against HEK293 cells incubated for 24 hrs by Neutral Red Uptake assay; conditions: human
Plasmodium falciparum [4] = assay: Resistance index, ratio of IC50 for multidrug-resistant asexual ring-stage Plasmodium falciparum Dd2 infected in erythrocytes to IC50 for CQ-sensitive asexual ring-stage Plasmodium falciparum 3D7 infected in erythrocytes; format: functional
[5] = Selectivity index, ratio of IC50 for HEK293 cells to IC50 for multidrug-resistant asexual ring-stage Plasmodium falciparum Dd2 infected in erythrocytes; conditions: human
[6] = Selectivity index, ratio of IC50 for HEK293 cells to IC50 for CQ-sensitive asexual ring-stage Plasmodium falciparum 3D7 infected in erythrocytes; conditions: human
[7] = Selectivity index, ratio of IC50 for HEK293 cells to IC50 for exo-erythrocytic stage Plasmodium berghei sporozoites expressing GFP-Luc fused genes infected in human HepG2-A16-CD81 cells expressing EGFP; format: toxicity, cell-based; conditions: read-out: Ratio IC50
Plasmodium berghei [8] = assay: Antiplasmodial activity against exo-erythrocytic stage Plasmodium berghei sporozoites expressing ANKA-GFPLuc-SMCON infected in human HepG2-A16-CD81 cells expressing EGFP assessed as parasitic growth inhibition by […]; format: functional, organism-based
in vitro [9] = conditions: human, liver microsomes
in vitro [10] = conditions: human, liver microsomes; remark: listed apart in the source
Plasmodium berghei [11] = assay: Antiplasmodial activity against exo-erythrocytic stage Plasmodium berghei sporozoites expressing GFP-Luc fused genes infected in human HepG2-A16-CD81 cells expressing EGFP assessed as parasitic growth inhibition measured for 20 hrs by Bright-Glo Luciferase Assay; format: functional, organism-based; conditions: HepG2-A16-CD81, 20 h
Plasmodium falciparum [12] = assay: Antiplasmodial activity against synchronous ring-stage Plasmodium falciparum 3D7 infected in human erythrocytes assessed as parasitic growth inhibition measured after 48 hrs by [3H]hypoxanthine incorporation assay; format: functional, organism-based; conditions: 3D7, Erythrocyte
Plasmodium falciparum [13] = assay: Antiplasmodial activity against synchronous ring-stage Plasmodium falciparum Dd2 infected in human erythrocytes assessed as parasitic growth inhibition measured after 48 hrs by [3H]hypoxanthine incorporation assay; format: functional, organism-based; conditions: Dd2, Erythrocyte
[14] = Cytotoxicity against human NFF cells incubated for 72 hrs by SRB assay
[15] = Selectivity index, ratio of IC50 for human NFF cells to IC50 for synchronous ring-stage Plasmodium falciparum 3D7 infected in human erythrocytes

Structure (SMILES)	IC50 at 24 h [3] [nM]	IC50 (Plasmodium falciparum [12]) [nM]	IC50 (Plasmodium falciparum [13]) [nM]	IC50 at 72 h [14] [nM]	selectivity ratio [15]	further results
CC(C)c1ccc(C(=O)N(CC(=O)NCc2ccccc2)Cc2ccc(C(=O)NO)cc2)cc1	69000					IC50 (Plasmodium falciparum [1]): 63 nM; IC50 (Plasmodium falciparum [2]): 243 nM; Ratio IC50 (Plasmodium falciparum [4]): 4; selectivity ratio [5]: 284; selectivity ratio [6]: 1100; selectivity ratio [7]: 4310; IC50 (Plasmodium berghei [8]): 16 nM; half-life at 1 h, 1 µM (in vitro [9]): 12.4 min; microsomal CLint at 1 h, 1 µM (in vitro [10]): 112 µL/min/mg
O=C1C(O)=C([C@H]2CC[C@H](c3ccc(Cl)cc3)CC2)C(=O)c2ccccc21 [ATOVAQUONE]						IC50 (Plasmodium berghei [11]): < 0.051 nM
O=C(/C=C/c1cccc(S(=O)(=O)Nc2ccccc2)c1)NO [BELINOSTAT]		60	130	2370	40	
CCN(CC)CCCC(C)Nc1ccnc2cc(Cl)ccc12 (configuration not stated) [CHLOROQUINE]	265000					
Cc1[nH]c2ccccc2c1CCNCc1ccc(/C=C/C(=O)NO)cc1 [PANOBINOSTAT]		10	30	70	7	
C/C=C1\NC(=O)[C@H]2CSSCC/C=C/[C@H](CC(=O)N[C@H](C(C)C)C(=O)N2)OC(=O)[C@H](C(C)C)NC1=O [ROMIDEPSIN]				1	< 1	

— ChEMBL document CHEMBL5614420, “Development of peptoid-based heteroaryl-decorated histone deacetylase (HDAC) inhibitors with dual-stage antiplasmodial activity” (Eur J Med Chem, 2024)
